Source: PMC11790949, “A multiplex method for rapidly identifying viral protease inhibitors” (Molecular Systems Biology, 2025)
Like-named read-outs stand apart in the source and are kept apart here.

What was measured:
[1] = target: Bat-CoV-HKU4-3CL (Bat coronavirus HKU4, UniProt P0C6W3); assay type: cell-based
[2] = target: Bat-CoV-HKU9-3CL (Bat coronavirus HKU9, UniProt P0C6W5); assay type: cell-based
[3] = test system: Bat-SV-CoVZC45-3CL; assay type: cell-based, Bat SL-CoVZC45
[4] = test system: BWCoV-SW1-3CL; assay type: cell-based, Beluga whale coronavirus SW1
[5] = target: CV-B3-3C (Coxsackievirus B3, UniProt P03313); assay type: cell-based
[6] = target: HCoV-229E-3CL (Human coronavirus 229E, UniProt P0C6X1); assay type: cell-based
[7] = target: HCoV-HKU1-3CL (Human coronavirus HKU1, UniProt P0C6X2); assay type: cell-based
[8] = target: MERS-CoV-3CL (Middle East respiratory syndrome-related coronavirus, UniProt K9N7C7); assay type: cell-based
[9] = target: SARS-CoV-3CL (Severe acute respiratory syndrome coronavirus, UniProt P0C6X7); assay type: cell-based
[10] = target: T1, SARS-CoV-2-3CL (Severe acute respiratory syndrome coronavirus 2, UniProt P0DTD1); assay type: cell-based
[11] = target: HCoV-NL63-3CL (Human coronavirus NL63, UniProt P0C6X5); assay type: cell-based
[12] = target: HAV-3C (Human hepatitis A virus genotype IB, UniProt P08617); assay type: cell-based
[13] = target: T1, SARS-CoV-2-3CL; test: cell-based
[14] = target: SARS-CoV-2 3CL protease (Severe acute respiratory syndrome coronavirus 2, UniProt P0DTD1); test: Biochemical inhibition of peptide cleavage by purified SARS-CoV-2 3CL protease (fluorogenic)
[15] = test system: SARS-CoV-2; assay type: cell-based
[16] = target: HIV-1-PR (Human immunodeficiency virus type 1 group M subtype B, UniProt P04585); assay type: cell-based
[17] = target: HIV-2-PR (Human immunodeficiency virus type 2 subtype A, UniProt P04584); assay type: cell-based
[18] = test system: SV-A-3C; assay type: cell-based, Salivirus
[19] = target: T2, SARS-CoV-PLP (Severe acute respiratory syndrome coronavirus, UniProt P0C6X7); test: cell-based
[20] = target: T3, SARS-CoV-2 PLP (Severe acute respiratory syndrome coronavirus 2, UniProt P0DTD1); test: biochemical
[21] = target: T3, SARS-CoV-2 PLP; assay type: biochemical
[22] = test system: SARS-CoV-2; test: microbe, parasite or virus in culture; assay type: cell-based; details: Severe acute respiratory syndrome coronavirus 2, 24 h, read-out: A549-C3 (ACE2/TMPRSS2) IC50, inhibition of SARS-CoV-2 viral replication
[23] = target: T4, Bat-SL-CoVZC45-PLP (Bat SARS-like coronavirus, UniProt A0A2R3SV02); assay type: cell-based
[24] = test system: SARS-CoV-2; test: microbe, parasite or virus in culture; assay type: cell-based; details: Severe acute respiratory syndrome coronavirus 2, Huh-7, 24 h, read-out: IC50, inhibition of SARS-CoV-2 viral replication in Huh7 cells
[25] = test system: LGTV-NS2B-GS-NS3
[26] = target: T4, Bat-SL-CoVZC45-PLP; assay type: cell-based; remark: listed apart in the source
[27] = test system: POWV-NS2B-GS-NS3; assay type: cell-based, tick-borne Powassan virus
[28] = target: T2, SARS-CoV-PLP; assay type: cell-based
[29] = target: T3, SARS-CoV-2 PLP; assay type: cell-based
[30] = target: MERS-CoV-PLP (Middle East respiratory syndrome-related coronavirus, UniProt K9N7C7); assay type: cell-based
[31] = target: T3, SARS-CoV-2 PLP; assay type: cell-based; remark: listed apart in the source

Q: Which results are given for `CCc1cc(=O)oc2cc(OC(=O)c3ccco3)ccc12` [CB6728297]?
A: magratio [1]: 0.5386; magratio [2]: 0.9832; magratio [3]: 0.6214; magratio [4]: 0.3619; magratio [5]: 0.2591; magratio [6]: 0.2941; magratio [7]: 0.5819; magratio [8]: 0.4038; magratio [9]: 1.394; magratio [10]: 0.9863; magratio [11]: 0.2557; magratio [12]: 0.4338; EC50 [13]: 5.6 µM

Q: For `O=C(Oc1ccc2ccc(=O)oc2c1)c1cccs1` [CB6762077], which magratio [1] is on record?
A: Its magratio is 0.7004.

Q: And the magratio [2]?
A: Its magratio is 0.9258.

Q: And the magratio [3]?
A: The magratio was 0.28.

Q: What about the magratio [4] of the same molecule?
A: The magratio was 0.4066.

Q: And the magratio [6]?
A: The magratio was 0.2867.

Q: What about the magratio [7] of the same molecule?
A: The magratio was 0.5727.

Q: What about the magratio [9] of the same molecule?
A: The magratio was 0.6861.

Q: And the magratio [10]?
A: Its magratio is 0.436.

Q: What about the magratio [11] of the same molecule?
A: Its magratio is 0.351.

Q: What about the magratio [12] of the same molecule?
A: Its magratio is 0.356.

Q: What about the EC50 [13] of the same molecule?
A: The EC50 was 7.7 µM.

Q: With `O=C(Oc1ccc2ccc(=O)oc2c1)c1ccco1` [CB6778425] as the molecule, how does the magratio [1] read?
A: Its magratio is 0.5241.

Q: What about the magratio [2] of the same molecule?
A: The magratio was 0.8169.

Q: What about the magratio [3] of the same molecule?
A: The magratio was 0.8357.

Q: What about the magratio [4] of the same molecule?
A: The magratio was 0.6941.

Q: What about the magratio [6] of the same molecule?
A: Its magratio is 0.4915.

Q: And the magratio [7]?
A: The magratio was 0.7283.

Q: And the magratio [8]?
A: Its magratio is 0.8027.

Q: And the magratio [9]?
A: The magratio was 0.5878.

Q: What about the magratio [10] of the same molecule?
A: Its magratio is 0.6675.

Q: What about the magratio [11] of the same molecule?
A: Its magratio is 0.4867.

Q: And the magratio [12]?
A: The magratio was 0.5812.

Q: What about the EC50 [13] of the same molecule?
A: Its EC50 is 0.782 µM.

Q: And the “shift of IC50 upon pre-incubation with SARS-CoV-2 3CL” value ([14]; addition of substrate at 0 and 20 minutes)?
A: Its value is “shifts to lower IC50s”.

Q: And the IC50 ([14]; biochemical fluorogenic assay, read-out: IC50, purified SARS-CoV-2 3CL protease)?
A: The IC50 was 0.062 µM.

Q: And the “activity within a live virus setting” value [15]?
A: The value was “minimal activity”.

Q: For `Cc1cccc(C)c1OCC(=O)N[C@@H](Cc1ccccc1)[C@@H](O)C[C@H](Cc1ccccc1)NC(=O)[C@H](C(C)C)N1CCCNC1=O` [Lopinavir], which magratio [16] is on record?
A: Its magratio is 1.188.

Q: What about the magratio [17] of the same molecule?
A: The magratio was 0.9971.

Q: With `O=C(Oc1cncc(Cl)c1)c1cccs1` [MAC-5576, reference compound] as the molecule, how does the magratio [1] read?
A: Its magratio is 0.8566.

Q: And the magratio [2]?
A: The magratio was 1.805.

Q: What about the magratio [3] of the same molecule?
A: The magratio was 1.703.

Q: And the magratio [4]?
A: The magratio was 1.841.

Q: What about the magratio [6] of the same molecule?
A: The magratio was 1.36.

Q: And the magratio [7]?
A: Its magratio is 1.559.

Q: What about the magratio [8] of the same molecule?
A: The magratio was 1.133.

Q: What about the magratio [9] of the same molecule?
A: The magratio was 2.282.

Q: And the magratio [10]?
A: Its magratio is 0.9818.

Q: What about the magratio [11] of the same molecule?
A: The magratio was 1.688.

Q: What about the magratio [12] of the same molecule?
A: The magratio was 0.7585.

Q: And the magratio [18]?
A: The magratio was 1.579.

Q: What does the source list for `CNC(=O)Oc1c(OC)ccnc1C` [MAVDA-B-116]?
A: EC50 [19]: 0.4 to 1.7 µM; IC50 [20]: 18.1 µM; trend in IC50 as a function of pre-incubation time with SARS-CoV-2 PLP [21]: downward trend in IC50; IC50 [22]: 16.6 µM

Q: For `CCOc1ccnc(C)c1OC(=O)NC` [MAVDA-B-190], which EC50 [19] is on record?
A: The EC50 was 0.4 to 1.7 µM.

Q: And the IC50 [20]?
A: The IC50 was 14.2 µM.

Q: And the “trend in IC50 as a function of pre-incubation time with SARS-CoV-2 PLP” value (“trend in IC50 as a function” below) [21]?
A: Its value is “downward trend in IC50”.

Q: And the IC50 [22]?
A: Its IC50 is over 50 µM.

Q: Which “activity in the yeast assay for Bat SL-CoVZC45 PLP” value [23] does the source give for `Cc1ccc(S)cc1.[Pb]` [MAVDA-B-191] here?
A: The value was “inactive”.

Q: What about the “activity in the yeast assay for SARS-CoV PLP” value [19] of the same molecule?
A: Its value is “inactive”.

Q: What does the source list for `O=C(c1ccccc1)C(c1ccccc1)(c1ccccc1)c1ccccc1` [MAVDA-B-194]?
A: activity in the yeast assay for Bat SL-CoVZC45 PLP [23]: inactive; activity in the yeast assay for SARS-CoV PLP [19]: inactive

Q: Which “activity in the yeast assay for Bat SL-CoVZC45 PLP” value [23] does the source give for `CNCC(N)=O.Cl` [MAVDA-B-195] here?
A: Its value is “inactive”.

Q: And the “activity in the yeast assay for SARS-CoV PLP” value [19]?
A: Its value is “inactive”.

Q: `CNC(=O)Oc1c(OCc2ccccc2)ccnc1C` [MAVDA-B-201] was tested. Which EC50 [19] did it give?
A: Its EC50 is 0.4 to 1.7 µM.

Q: What about the IC50 [20] of the same molecule?
A: The IC50 was 9.8 µM.

Q: And the “trend in IC50 as a function” value [21]?
A: The value was “downward trend in IC50”.

Q: And the IC50 [22]?
A: The IC50 was 41.2 µM.

Q: `CNC(=O)Oc1c(OC(C)C)ccnc1C` [MAVDA-B-217] was tested. Which EC50 [19] did it give?
A: Its EC50 is 0.4 to 1.7 µM.

Q: And the IC50 [20]?
A: The IC50 was 5.8 µM.

Q: What about the “trend in IC50 as a function” value [21] of the same molecule?
A: The value was “downward trend in IC50”.

Q: And the IC50 [22]?
A: Its IC50 is 49.8 µM.

Q: Which EC50 [19] does the source give for `CNC(=O)Oc1c(OCC2CCCCC2)ccnc1C` [MAVDA-B-219] here?
A: The EC50 was 0.4 to 1.7 µM.

Q: And the IC50 [20]?
A: The IC50 was 3.5 µM.

Q: And the “trend in IC50 as a function” value [21]?
A: Its value is “downward trend in IC50”.

Q: And the IC50 [22]?
A: The IC50 was 14.9 µM.

Q: And the IC50 [24]?
A: The IC50 was 16.3 µM.

Q: With `CCOC(=O)C(=O)Cc1nc2ccccc2s1` [NSC38490] as the molecule, how does the magratio [8] read?
A: The magratio was 0.2455.

Q: Which magratio [7] does the source give for `COc1cc(O)c(C(=O)/C=C/c2ccccc2)c(OC)c1` [NSC51351] here?
A: Its magratio is 0.2725.

Q: What about the magratio [18] of the same molecule?
A: Its magratio is 0.2675.

Q: How did the magratio [8] turn out when `CCSc1nc(=S)cc(C)[nH]1` [NSC67307] was run?
A: The magratio was 0.2279.

Q: Which results are given for `N#Cc1c(N)nc(N)nc1Nc1ccc(Br)cc1` [NSC71866]?
A: magratio [18]: 0.2095; magratio [25]: 0.2846

Q: Which results are given for `Cc1cc2c(cc1C)N(C(=O)CCl)CC(=O)N2` [NSC138389]?
A: magratio [1]: 0.217; magratio [3]: 0.2787; magratio [4]: 0.6472; magratio [7]: 0.303; magratio [10]: 0.2809; magratio [26]: 0.922; magratio [27]: 0.5885; magratio [28]: 0.5699; magratio [25]: 0.3021

Q: `CN(C(=O)c1ccncc1)c1ccccc1` [NSC204976] was tested. Which magratio [8] did it give?
A: Its magratio is 0.3045.

Q: How did the magratio [1] turn out when `S=c1[nH]c2ccccc2n2cccc12` [NSC246415] was run?
A: The magratio was 0.2265.

Q: How did the magratio [1] turn out when `CCOC(=O)c1c(NC(=S)NC)sc2c1CCCC2` [NSC280492] was run?
A: The magratio was 0.288.

Q: For `CNC(=O)Oc1c(C)[nH]ccc1=O` [NSC287495], which magratio [26] is on record?
A: Its magratio is 0.8718.

Q: What about the magratio [28] of the same molecule?
A: Its magratio is 0.9749.

Q: What about the magratio [29] of the same molecule?
A: Its magratio is 0.3486.

Q: And the magratio [30]?
A: The magratio was 0.4201.

Q: What about the EC50 [19] of the same molecule?
A: Its EC50 is 22.8 µM.

Q: And the “response of the SARS-CoV-2 PLP yeast model” value [31]?
A: Its value is “relatively weak response”.

Q: `N#CCS(=O)(=O)c1cccc[n+]1[O-]` [NSC361056] was tested. Which magratio [4] did it give?
A: The magratio was 0.7101.

Q: With `NC(N)=NC(=S)Nc1ccc(Cl)cc1` [NSC403374] as the molecule, how does the magratio [3] read?
A: Its magratio is 0.2507.

Q: What about the magratio [9] of the same molecule?
A: Its magratio is 0.3199.

Q: And the magratio [10]?
A: The magratio was 0.7395.

Q: How did the magratio [30] turn out when `Cc1cc(N(C)C)ccc1N=Nc1ccc2ncccc2c1` [NSC680516] was run?
A: The magratio was 0.228.

Q: GRL0617 [reference compound] was tested. Which “response of the SARS-CoV-2 PLP yeast model” value [31] did it give?
A: Its value is “blunted response”.
